The source of these data is patent US8877437B1, “Methods of using dyes in association with nucleic acid staining or detection” (Biotium, Inc., priority 2009, dated 2014).

The conditions of data set [1]: test not named; cited from earlier work.
For data set [2] the following is noted: cited from earlier work.
The test system of the next data set is aquatic life. The note with it: in vivo; cited from earlier work.
The next data set concerns cells. The settings on record: cited from earlier work.
The next data set concerns nucleic acid. The note with it: cited from earlier work.
Data set [3] can be described thus: Hydrolytic and thermal stability for pre-cast gel preparation and storage. Format: physicochemical. From the text:
In a gel electrophoresis application, an agarose gel may be prepared by heating (via microwave, for example) a suspension of agarose powder in an electrophoresis buffer, such as lithium borate buffer, thereby producing a hot agarose solution, pouring the solution onto a slab, and cooling the solution, thereby producing a useful gel. […] For example, in a pre-cast gel staining application, SYBR Green I dye is generally combined with an agarose solution after the initial agarose suspension has been heated and the resulting agarose solution has been cooled as much as possible. Combining the SYBR Green I dye with the agarose solution in this manner may be a delicate task, as if the temperature of the agarose solution is too high, the dye my decompose, and if the temperature of the agarose solution is too low, the agarose solution may gel up such that the dye and the solution are inadequately combined or mixed. Further by way of example, in a pre-cast gel staining application, a pre-cast gel prepared with SYBR Green I is generally used within 24 hours, as it may lose utility thereafter. […] This dye may offer sufficient to exceptional stability, as well as low or minimal background fluorescence relative to EB and low or minimal toxicity relative to EB, as further described below.

A short description of data set [4]: Stability of dye in gel electrophoresis buffer (room temperature, microwave heating). Format: physicochemical.
Setting [5] is: pre-cast gel containing the dye.

Where two headings read alike, the source gives them in different places.

Consider `CC[n+]1c(-c2ccccc2)c2cc(N)ccc2c2ccc(N)cc21` [EB, ethidium bromide], for which the mutagenicity entry in data set [1] is given as “powerful mutagen”. In data set [2] (reference dyes, general statement), the “hydrolytic and thermal stability for preparation of a pre-cast gel” value is “sufficiently stable, both hydrolytically and thermally”.

Turning to `CCCN1C=C/C(=C\c2sc3ccccc3[n+]2C)c2ccccc21` [SYBR Safe], the “safety to aquatic life” value with aquatic life was “safe to aquatic life”. Besides, the cytotoxicity entry in the data set on cells is listed as “cytotoxic at relatively high concentrations”.

`CCCN(CCCN(C)C)c1cc(/C=C2/Sc3ccccc3N2C)c2ccccc2[n+]1-c1ccccc1` [SYBR Green I]: the cytotoxicity result in the data set with cells was “cytotoxic at relatively high concentrations”. For the same compound, the “time within which pre-cast gel is used before losing utility” value in data set [2] (setting [5]) is at most 24 h.

Consider `CN(C)c1ccc2cc3ccc(N(C)C)cc3nc2c1` [AO, Acridine orange], for which the “affinity for nucleic acid” value in the data set with nucleic acid is given as “very low”.

With `Nc1ccc2c(c1)c(-c1ccccc1)[n+](CCCCCC(=O)NCCCOCCOCCOCCCNC(=O)CCCCC[n+]1c(-c3ccccc3)c3cc(N)ccc3c3ccc(N)cc31)c1cc(N)ccc21.[I-].[I-]` [GelRed], in the data set on aquatic life, the “safety to aquatic life” value was “safe to aquatic life”. Besides, the cytotoxicity entry with cells was “noncytotoxic”.

As to `Nc1ccc2c(c1)c(-c1ccccc1)[n+](CCCCCC(=O)NCCCOCCOCCOCCCNC(=O)CCCCC[n+]1c(-c3ccccc3)c3cc(N)ccc3c3ccc(N)cc31)c1cc(N)ccc21` [Dye No. 35], in data set [3], the “hydrolytic and thermal stability for preparation of a pre-cast gel” value was “sufficient hydrolytic and thermal stability”. In addition, in data set [3] (setting [5]), the “storage of pre-cast gel without loss of performance” value was “at least 3 months”. Further, the “time heated in a microwave oven without decomposition” value in data set [4] (in TBE buffer) is recorded as “at least 10 minutes”. Besides, the “time stable in electrophoresis buffer” value in data set [4] (lithium borate buffer, room temperature) is on record as “at least 6 months”.

Regarding `CN(C)c1ccc2cc3ccc(N(C)C)cc3[n+](CCCCCC(=O)NCCCOCCOCCOCCCNC(=O)CCCCC[n+]3c4cc(N(C)C)ccc4cc4ccc(N(C)C)cc43)c2c1.[I-].[I-]` [GelGreen], the “safety to aquatic life” value in the data set on aquatic life is recorded as “safe to aquatic life”. For the same compound, the cytotoxicity result with cells is given as “noncytotoxic”.
